The record followed here is ChEMBL document CHEMBL5316370, “Laeviganoids A-T, ent-Clerodane-Type Diterpenoids from Croton laevigatus” (2023).

The structures appear in SMILES notation. Activity calls are given as the source filed them. The rule behind the calls is not given here. Where only a bound is given, the exact number is not on record here.

Assay [1] has as its system RAW264.7. The assay is described as follows: Anti-inflammatory activity against IL-4/IL-13 stimulated mouse RAW264.7 cells assessed as inhibition of IL-10 secretion at 20 uM incubated for 48 hrs by ELISA method. The format is functional, cell-based. On the technique in general: An ELISA detects its analyte on a solid surface through an enzyme-linked reagent.
Assay [2] deals with RAW264.7. The assay is described as follows: Anti-inflammatory activity against IL-4/IL-13 stimulated mouse RAW264.7 cells assessed as inhibition of IL-10 secretion at 5 to 20 uM incubated for 48 hrs by ELISA method relative to control. The format is functional. Conditions: dose 5-20 µM.
Assay [3] has as its system RAW264.7. The assay is described as follows: Anti-inflammatory activity against IL-4/IL-13 stimulated mouse RAW264.7 cells assessed as upregulation of TNFalpha secretion at 20 uM incubated for 48 hrs by ELISA method. The format is functional, cell-based.
For assay [4], the system named is RAW264.7. The assay is described as follows: Anti-inflammatory activity against IL-4/IL-13 stimulated mouse RAW264.7 cells assessed as upregulation of TNFalpha secretion at 5 to 20 uM incubated for 48 hrs by ELISA method relative to control. Conditions: dose 5-20 µM. The format is functional.

In the case of `C[C@]12[C@H](OC(=O)c3ccccc3)[C@@H](c3ccoc3)OC(=O)[C@@H]1CC[C@]1(C)[C@@H]2CC[C@@H](O)[C@]1(C)O`, the inhibition result in the assay on RAW264.7 [1] is “Active”. `C[C@]12C[C@@H](c3ccoc3)OC(=O)[C@@H]1CC[C@]1(C)[C@@H]2CCC(=O)[C@]1(C)O`: the inhibition entry with RAW264.7 [1] is “Active”. `C[C@]12C[C@@H](c3ccoc3)OC(=O)[C@@H]1CC[C@]1(C)[C@@H]2CC[C@H](Cl)[C@@]1(C)O`: the inhibition entry with RAW264.7 [1] is “Active”. Consider `C=C1[C@H](O)CC[C@@H]2[C@@](C)(CC(=O)c3ccoc3)[C@H](C)CC[C@@]12C`, for which the inhibition result with RAW264.7 [1] is “Active”. Take `C[C@@H]1CC[C@]2(C)[C@H](CC[C@@H](O)[C@]2(C)O)[C@@]1(C)CC(=O)c1ccoc1`: the inhibition result in the assay on RAW264.7 [1] is “Active”.

For `CCO[C@@]1(C)[C@H](O)CC[C@@H]2[C@@](C)(CC(=O)c3ccoc3)[C@H](C)CC[C@]21C`, in the assay with RAW264.7 [1], the inhibition result was “Active”. For the same compound, in the assay on RAW264.7 [2], the “inhibition (INH)” value was above 40%. Moreover, the outcome with RAW264.7 [3] was Active. In the assay with RAW264.7 [4], the Activity is given as above 40%. Consider `CC1=CC(=O)O[C@@H]1C[C@@]1(C)[C@H](C)CC[C@@]2(C)C(C)=CC(=O)C[C@H]12`, for which, in the assay with RAW264.7 [1], the inhibition result was “Active”. As for `C[C@@H]1CC[C@]2(C)[C@H](CCC(=O)[C@H]2C)[C@@]1(C)CC(=O)c1ccoc1`, the inhibition result with RAW264.7 [1] was “Active”.

With `CC1=CC(=O)O[C@H]1C[C@@]1(C)[C@H](C)CC[C@@]2(C)C(C)=CCC[C@H]12`, in the assay with RAW264.7 [1], the inhibition result is “Active”. On to `C[C@@H]1C(=O)CC[C@@H]2[C@@](C)(CCc3ccoc3)[C@H](CO)CC[C@]21C`, for which the inhibition entry in the assay with RAW264.7 [1] was “Active”. Take `COC(=O)[C@@H]1CC[C@]2(C)[C@H](CC[C@@H](O)[C@]2(C)O)[C@@]1(C)CC(=O)c1ccoc1`: in the assay with RAW264.7 [1], the inhibition entry was “Active”. Besides, the outcome in the assay on RAW264.7 [3] was Active.

Take `C=C1[C@H](O)CC[C@@H]2[C@@](C)(C[C@H](O)c3ccoc3)[C@H](C)CC[C@@]12C`: in the assay on RAW264.7 [1], the inhibition entry was “Active”. Still for that read-out and setting: the result for `C[C@]12C[C@@H](c3ccoc3)OC(=O)[C@@H]1CC[C@]1(C)[C@@H]2CCC(=O)[C@@]1(C)O` reads “Active”. On to `CO[C@@]1(C)[C@H](O)CC[C@@H]2[C@@](C)(C[C@H](O)c3ccoc3)[C@H](C)CC[C@]21C`, for which the inhibition entry with RAW264.7 [1] is “Active”. Further, the “inhibition (INH)” value in the assay with RAW264.7 [2] is above 40%. Also, the result in the assay on RAW264.7 [3] was Active. In the assay with RAW264.7 [4], the Activity was above 40%. In the case of `C[C@]12C(=CC[C@]3(C)[C@@H]1CC[C@@H](O)[C@]3(C)O)C(=O)O[C@H](c1ccoc1)[C@H]2OC(=O)c1ccccc1`, the inhibition entry in the assay with RAW264.7 [1] was “Active”. For `CO[C@@]1(C)[C@H](O)CC[C@@H]2[C@@]3(C)[C@H](OC(=O)c4ccccc4)[C@@H](c4ccoc4)OC(=O)[C@@H]3CC[C@]21C`, in the assay with RAW264.7 [1], the inhibition result is “Active”. Moreover, the “inhibition (INH)” value with RAW264.7 [2] is listed as above 40%. The outcome in the assay with RAW264.7 [3] was Active. Besides, the Activity in the assay on RAW264.7 [4] is given as above 40%.

`CC1=CC(=O)O[C@@H]1C[C@@]1(C)[C@H](C)CC[C@@]2(C)C(C)=CCC[C@H]12`: the inhibition entry in the assay with RAW264.7 [1] was “Active”. In the case of `CC(=O)O[C@@H]1[C@@H](c2ccoc2)OC(=O)[C@@H]2CC[C@@]3(C)C(C)C(=O)CC[C@@H]3[C@@]12C` (stereo partly drawn), the inhibition result with RAW264.7 [1] was “Active”. On to `C/C(=C\CO)CC[C@@]1(C)[C@H](C)CC[C@@]2(C)C(CO)=CCC[C@H]12`, for which the inhibition entry with RAW264.7 [1] was “Active”. Besides, the “inhibition (INH)” value in the assay with RAW264.7 [2] is given as above 40%. In addition, the outcome in the assay on RAW264.7 [3] was Active. For the same compound, the Activity in the assay with RAW264.7 [4] is given as above 40%.

Consider `C[C@]1(CCc2ccoc2)[C@H](CO)CC[C@]2(C)[C@@H]1CC[C@@H](O)[C@]2(C)O`, for which the inhibition entry with RAW264.7 [1] is “Active”. On the same count and under the same terms, as for `CC(=O)O[C@@H]1[C@@H](c2ccoc2)OC(=O)[C@@H]2CC[C@]3(C)[C@H](CC[C@@H](O)[C@]3(C)O)[C@@]12C`, the entry is “Active”. `C[C@@H]1CC[C@]2(C)[C@H](CCC(=O)[C@H]2C)[C@@]1(C)CCc1ccoc1`: the inhibition result with RAW264.7 [1] was “Active”. Besides, the outcome with RAW264.7 [3] was Active. For the compound `C[C@@H]1CC[C@]2(C)[C@H](CC[C@@H](O)[C@]2(C)O)[C@@]1(C)CCc1ccoc1`, the inhibition entry in the assay with RAW264.7 [1] was “Active”. In the assay on RAW264.7 [3], the result was Active. Take `CC1=CCC[C@@H]2[C@@]3(C)C[C@@H](c4ccoc4)OC(=O)[C@@H]3CC[C@@]12C`: the inhibition result in the assay on RAW264.7 [1] was “Active”. As to `COC(=O)[C@@H]1CC[C@]2(C)[C@H](CC[C@@H](O)[C@]2(C)OC)[C@@]1(C)CC(=O)c1ccoc1`, in the assay with RAW264.7 [1], the inhibition result was “Active”. For the same compound, in the assay on RAW264.7 [3], the outcome was Active. Take `C[C@]1(C[C@H](O)c2ccoc2)[C@H](CO)CC[C@]2(C)[C@@H]1CC[C@@H](O)[C@]2(C)O`: the inhibition entry in the assay with RAW264.7 [1] was “Active”. In the assay with RAW264.7 [3], the outcome was Active.
